One assay relates to N. multiformis. The assay is described as follows: standard nitrification inhibition assay (NO2- production, Griess). Particulars: [NH4+]=3 mM, [inhibitor]=0.3 mM (10 mol %), pH 7.5, 30° C., 60 min. It counts as cell-based, Nitrosospira multiformis. The method, then:
Cells of N. multiformis and N. europaea were cultivated to the mid-exponential growth phase (OD600=0.1, [NO2^−] approximately 800 μM) and harvested by filtration onto 0.2 μm membrane filters (Mixed Cellulose Ester (MCE), Sigma Aldrich). The cells were washed with 2×100 mL of 0.1 M sodium phosphate buffer (NaPB), containing 0.2 mM MgSO4 at pH 7.5. The cells were washed from the filter paper by transferring it to a sterile 50 mL tube and resuspending in NaPB (15 mL), followed by 5 s of vortexing (Ratek, Australia) and 3 s of sonication (Vevor, Australia). […] Experiments were performed in triplicate.
In a deep 96-well plate (2 mL capacity), 980 μL of the bacterial inoculum (OD600=0.03) was added to the inhibitor (10 μL, 30 mmol L^−1 in Milli-Q water), the solutions were mixed thoroughly and pre-incubated in the dark for 5 minutes at 100 rpm and 30° C. (NH4)2SO4 (10 μL, 150 mM, from a prepared sterile solution containing 19.8 g L^−1 (NH4)2SO4 in Milli-Q water) was then added using a multi-channel pipette. The plate was covered with a with an O2 permeable membrane to ensure aeration (Breathe-Easy® sealing membrane, Sigma Aldrich) and incubated in a temperature-regulated rotary incubator (Ratek, Australia) in the dark for 60 minutes at 30° C. and 100 rpm. An aliquot of the reaction solution ([…]) was transferred to a 96-well spectrophotometric plate to which 50 µL of Griess reagent was added. The colour was allowed to develop for 15 minutes at room temperature, and the absorbance was measured at 540 nm. Each assay was accompanied by control treatments to determine the 0% and 100% NO2 signal. The percentage inhibition was calculated according to eqn. 1 from the NO2 production of the cells in NaPB (i) without additive (‘untreated cells’: 0% signal), (ii) with [NH4^+]=3 mM (‘uninhibited’ cells: 100% signal) and (iii) with [NH4^+]=3 mM and [inhibitor]=0.3 mM and 0.03 mM (10 mol % and 1 mol % of [NH4^+], ‘inhibited cells’). Experiments were performed in triplicate.

The target in assay [1] is T1, hydroxylamine oxireductase (HOA) (Nitrosomonas europaea, UniProt Q50925).
T1 construct: N. europaea and N. multiformis contain naturally both enzymes; endogenous in cells; host or cells: N. europaea pure culture (whole cells in NaPB)
T1 sequence (Q50925 25-570): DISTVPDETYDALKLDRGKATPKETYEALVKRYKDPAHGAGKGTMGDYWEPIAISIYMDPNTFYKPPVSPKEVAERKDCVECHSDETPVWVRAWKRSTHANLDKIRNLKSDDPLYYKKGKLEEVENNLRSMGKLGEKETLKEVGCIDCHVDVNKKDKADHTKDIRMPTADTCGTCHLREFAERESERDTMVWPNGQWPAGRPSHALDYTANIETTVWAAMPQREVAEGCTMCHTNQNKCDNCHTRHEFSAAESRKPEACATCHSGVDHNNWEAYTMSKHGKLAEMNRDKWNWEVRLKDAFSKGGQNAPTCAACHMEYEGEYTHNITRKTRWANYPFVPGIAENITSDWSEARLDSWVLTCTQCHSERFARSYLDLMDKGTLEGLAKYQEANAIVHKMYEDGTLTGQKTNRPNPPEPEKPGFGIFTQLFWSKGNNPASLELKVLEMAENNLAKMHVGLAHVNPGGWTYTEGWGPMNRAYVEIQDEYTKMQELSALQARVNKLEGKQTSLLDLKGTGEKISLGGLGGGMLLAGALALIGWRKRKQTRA
The assay can be described thus: standard nitrification inhibition assay with NH2OH as substrate. It counts as cell-based, N. europaea. Particulars: substrate NH2OH 3 mM, [inhibitor]=0.3 mM, pH 7.5, 30° C., 60 min; read-out: % Inhibition NE.

For `C#CCn1cc(C)nn1` [Compound 4-MPT, 4-Methyl-1-(prop-2-yn-1yl)-1H-1,2,3-triazole], in the assay on N. multiformis, the “% Inhibition NM” value came to 75%. Further, in assay [1], the inhibition (usually how much of the control response was suppressed) at 300 µM worked out at 28 ± 3%.

The record behind these values is US20260215425A1, “NITRIFICATION INHIBITORS” (The University of Melbourne, priority 2022, published 2026).
